Experimental data published in patent publication US12364667B2, “Anti-tumor platinum-based drug mineralized protein nanoparticle, preparation method therefor and use thereof” (SOOCHOW UNIVERSITY, priority 2019, dated 2025).

Legend:
[1] = tested on: A549 tumor model; assay: Anti-tumor effect, A549 subcutaneous tumor model; assay type: in vivo
[2] = tested on: HepG-2 cell line; assay: MTT cytotoxicity on HepG-2 cell line; assay type: cell-based, human; settings: 24 hours
Method: Placing the plate in a cell incubator for 12 hours at constant temperature. […] After 24 hours in the incubator, replace the culture medium, add 10 μL of MTT (3-(4,5-dimethylthiazol-2-yl)-2,5-diphenyltetrazolium bromide) PBS (phosphate-buffered saline) solution with a concentration of 5 mg/mL, discard the culture medium after 4 hours, add 200 μL of DMSO (dimethylsulfoxide), shake for 10 minutes, measure the absorbance value at 490 nm with a microplate reader.

[3] = tested on: A549/DDP tumor model; assay: Anti-tumor effect, A549/DDP subcutaneous tumor model; assay type: in vivo, nude mice; settings: platinum 1 mg/kg once every 5 days, 25 days
[4] = Serum ALT, AST, ALP and urea nitrogen after treatment; assay type: in vivo, Balb/c mice; settings: 7 days after complete injection; tail vein, once every 5 days, 5 administrations
Method: 12. […] Each mouse was administered via the tail vein (1 mg/mL, once every 5 days). After a total of 5 administrations for 25 days, each mouse was taken by eyeball blood sampling at 7, 14, 21, and 28 days after administration. A 0.5 mL blood sample from a mouse was placed overnight at 4° C. and centrifuged at 1000 rpm for 5 min. The upper clarified serum 200 μL was taken out to measure the alanine aminotransferase (ALT), aspartate aminotransferase (AST), alkaline phosphatase (ALP) and urea nitrogen (Urea) contents.

Question: Which “effect on tumor growth” value ([1]; A549 tumor model, platinum 1 mg/kg once every 5 days, 25 days) does the source give for N.N.[Cl][Pt][Cl] [cisplatin] here?
Answer: a certain tumor-inhibiting effect

Question: And the “condition of the nude mice during the observation period” value ([1]; mouse, in vivo)?
Answer: in poor condition and lost weight

Question: And the “IC50 for HepG-2 cell line” value [2]?
Answer: 12.6 µg/mL

Question: And the “effect on tumor growth” value [3]?
Answer: a certain tumor-inhibiting effect

Question: What about the “serum urea nitrogen content versus control group” value [4] of the same compound?
Answer: significantly different from that of the control group
